The values that follow come from paper PMC9369295, “Key Residues Affecting Binding Affinity of Sirex noctilio Fabricius Odorant-Binding Protein (SnocOBP9) to Aggregation Pheromone” (International Journal of Molecular Sciences, 2022).

Structures are written as SMILES. “Also recorded” adds a separate entry of the source. Read-outs that look alike come from different tables or passages of the source.

One assay concerns the target SnocOBP9WT (Sirex noctilio, UniProt A0A857N3E7). Kind of assay: Fluorescence competitive binding assay with 1-NPN probe, wild-type protein.
In a further assay the target is SnocOBP9L116A (Sirex noctilio, UniProt A0A857N3E7, L137A). Nature of the assay: Fluorescence binding assay with 1-NPN probe, mutant L116A. The source says: (§1) To measure the binding affinity of the ligand to recombinant SnocOBP9, 1-NPN was selected as a fluorescent probe. Eleven host volatiles ((−)-Limonene, (+)-Limonene, 3-Carene, Alpha-Pinene and Beta-Pinene, Camphene, Beta-Myrcene, Beta-Ocimene, Sabinene, Hexanal and Eucalyptol), three insect pheromones ((Z)-3-Decen-ol, (Z)-4-Decen-ol and (E, E)-2,4-decadienal) and six symbiotic fungal volatile (Cyclopentanone, Geraniol 2-Hexene, (−)-Globulol, Linalol and 1-(3-ethylphenyl)ethenone) compounds were selected to bind with recombinant SnocOBP9. A multi-scan Spectrum Molecular Device Spectra Max i3 Fluorescence Spectrophotometer (Thermo Scientific, Wilmington, DE, USA) was used to conduct fluorescence competitive binding assays with an excitation wavelength of 337 nm. The emission spectra were recorded between 390 and 500 nm. The parameters were selected such that the slit widths for both excitation and emission were 10 nm. […] Intensity values corresponding to the maximum fluorescence emission were plotted against the free ligand concentrations to calculate the dissociation constant. Assuming the activity of the protein was 100%, and the stoichiometric ratio between the protein and the ligand was 1:1 when saturated, the bound ligand was determined from the fluorescence intensity value. The K1-NPN value was calculated by linearizing the curve using Scatchard plots. […]

The next assay has as its target SnocOBP9F71A (Sirex noctilio, UniProt A0A857N3E7, F92A). Nature of the assay: Fluorescence binding assay with 1-NPN probe, mutant F71A.
Description: as §1

A further assay has as its target SnocOBP9F74A (Sirex noctilio, UniProt A0A857N3E7, F95A). Kind of assay: Fluorescence binding assay with 1-NPN probe, mutant F74A.
Description: as §1

In the next assay the target is SnocOBP9F57A (Sirex noctilio, UniProt A0A857N3E7, F78A). Nature of the assay: Fluorescence binding assay with 1-NPN probe, mutant F57A.
Description: as §1

The target of another assay is SnocOBP9M54A (Sirex noctilio, UniProt A0A857N3E7, M75A). Kind of assay: Fluorescence binding assay with 1-NPN probe, mutant M54A.
Description: as §1

Where [1] appears, read: protein and 1-NPN both 2 μM, ligand titrated to 1–20 μM, read-out: IC50.

SnocOBP9M54A, sequence (A0A857N3E7 entry or part of it M75A): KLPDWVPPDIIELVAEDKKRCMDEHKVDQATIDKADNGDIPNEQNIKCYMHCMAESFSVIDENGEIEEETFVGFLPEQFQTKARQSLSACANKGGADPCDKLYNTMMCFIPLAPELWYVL
SnocOBP9L116A, sequence (A0A857N3E7 entry or part of it L137A): as the sequence (A0A857N3E7 entry or part of it M75A) above, with A54M, L116A counted along it
SnocOBP9WT, sequence (A0A857N3E7 entry or part of it): as the sequence (A0A857N3E7 entry or part of it M75A) above, with A54M counted along it
SnocOBP9F71A, sequence (A0A857N3E7 entry or part of it F92A): as the sequence (A0A857N3E7 entry or part of it M75A) above, with A54M, F71A counted along it
SnocOBP9F74A, sequence (A0A857N3E7 entry or part of it F95A): as the sequence (A0A857N3E7 entry or part of it M75A) above, with A54M, F74A counted along it
SnocOBP9F57A, sequence (A0A857N3E7 entry or part of it F78A): as the sequence (A0A857N3E7 entry or part of it M75A) above, with A54M, F57A counted along it

On to `CCc1cccc(C(C)=O)c1` [1-(3-ethylphenyl)ethenone], for which, on SnocOBP9WT (setting [1]), the IC50 – broadly, the concentration that gives 50% inhibition – is over 20 µM.

`c1ccc(Nc2cccc3ccccc23)cc1` [1-NPN, N-phenyl-1-naphthylamine, reference compound]: the Kd (usually the equilibrium constant for the complex coming apart) on SnocOBP9L116A was 17.5 ± 2.41 µM; on SnocOBP9WT, 6.87 ± 0.73 µM; on SnocOBP9F71A, 1.27 ± 2.42 µM; at SnocOBP9F74A, 18.4 ± 1.66 µM; at SnocOBP9F57A, 4.49 ± 0.82 µM; on SnocOBP9M54A it was 7.61 ± 0.92 µM.

`CC=CCCC` [2-Hexene]: on SnocOBP9WT (setting [1]), the IC50 was over 20 µM.

With `CC1=CCC2C(C1)C2(C)C` (stereo not shown) [3-Carene], on SnocOBP9WT (setting [1]), the IC50 is over 20 µM.

For the molecule `C=C(C)[C@H]1CC=C(C)CC1` [(+)-Limonene], on SnocOBP9WT, the IC50 is 6.09 ± 1.43 µM and the Ki (usually a dissociation constant, usually derived from enzyme kinetics or from competition with a known ligand) is 4.87 ± 0.94 µM.

In the case of `CCCCC/C=C/C=C/C=O` [(E, E)-2,4-Decadienal], the 50% inhibitory concentration (IC50) at SnocOBP9WT (setting [1]) is over 20 µM.

For the molecule `CCCCC/C=C\CCCO` [(Z)-4-Decen-ol], on SnocOBP9WT (setting [1]), the IC50 was over 20 µM.

Regarding `C[C@@H]1CC[C@@H]2[C@@H]1[C@H]1[C@@H](CC[C@@]2(C)O)C1(C)C` [(−)-Globulol], the IC50 at SnocOBP9WT (setting [1]) is over 20 µM.

At SnocOBP9WT, `C=C(C)[C@@H]1CC=C(C)CC1` [(−)-Limonene] had a half-inhibitory concentration (IC50) of 6.95 ± 0.61 µM and a Ki of 5.5 ± 0.49 µM.

On to `CC1=CCC2CC1C2(C)C` (stereo not drawn) [Alpha-Pinene], for which, on SnocOBP9WT, the IC50 is over 20 µM.

In the case of `C=CC(=C)CCC=C(C)C` [Beta-Myrcene], at SnocOBP9WT (setting [1]), the IC50 is over 20 µM.

Regarding `C=C/C(C)=C/CC=C(C)C` [Beta-Ocimene], the IC50 at SnocOBP9WT (setting [1]) is over 20 µM.

Turning to `C=C1CCC2CC1C2(C)C` (stereo not drawn) [Beta-Pinene], the IC50 at SnocOBP9WT is over 20 µM.

For `C=C1C2CCC(C2)C1(C)C` (stereo not shown) [Camphene], on SnocOBP9WT (setting [1]), the IC50 was over 20 µM.

In the case of `O=C1CCCC1` [Cyclopentanone], the IC50 at SnocOBP9WT (setting [1]) is over 20 µM.

`CC12CCC(CC1)C(C)(C)O2` [Eucalyptol]: on SnocOBP9WT (setting [1]), the IC50 is over 20 µM.

With `CC(C)=CCC/C(C)=C/CO` [Geraniol], on SnocOBP9WT, the IC50 is over 20 µM.

In the case of `CCCCCC=O` [Hexanal], at SnocOBP9WT, the IC50 was over 20 µM.

As for `C=CC(C)(O)CCC=C(C)C` (stereo not shown) [Linalool], the IC50 on SnocOBP9WT was over 20 µM.

As to `C=C1CCC2(C(C)C)CC12` (stereo not shown) [Sabinene], the IC50 at SnocOBP9WT (setting [1]) was over 20 µM.

With `CCCCCC/C=C\CCO` [Z3D, (Z)-3-decen-ol], the “binding affinity (fluorescence competitive assay)” value is “no binding affinity; also recorded: never decreased below 50%” on SnocOBP9L116A (mutant LEU116 to ALA, Ki could not be calculated); “no binding affinity; also recorded: never decreased below 50%” at SnocOBP9F71A (mutant PHE71 to ALA, Ki could not be calculated); “no binding affinity; also recorded: never decreased below 50%” on SnocOBP9F74A (mutant PHE74 to ALA, Ki could not be calculated); “no binding affinity; also recorded: never decreased below 50%” on SnocOBP9M54A (mutant MET54 to ALA, Ki could not be calculated). Besides, on SnocOBP9WT (setting [1]), the IC50 was determined as 1.92 ± 0.14 µM. In addition, the Ki at SnocOBP9WT (protein and 1-NPN both 2 μM, ligand titrated to 1–20 μM, read-out: Ki) was 1.53 ± 0.09 µM; at SnocOBP9F57A it was 5.61 ± 0.5 µM.
